Experimental data: US9119881B2, “Method of synergistically enhancing the therapeutic efficacy and safety of medication through a combination therapy” (priority 2010, dated 2015)
Marks after values point to notes of the source that are not given here. Where no end group is shown, it is not given here. The star is where a group is joined. Myristoyl = CCCCCCCCCCCCCC(=O)*

Key:
[1] = as stated in U.S. Pat. No. 6,515,132; cited from earlier work
[2] = Dietary ABA and rosiglitazone in obese db/db mice: body and organ weights; type: in vivo; details: for Final body weight / Ab. WAT % Body Weight / Liver % Body Weight / Sc. WAT % Body Weight: with or without ABA 100 mg/kg diet; for Final body weight: 60 days
Method: Twelve-fifteen week-old BKS.Cg-+Lepr^db/+Lepr^db/OlaHsd (db/db) mice were housed at the animal facilities at Virginia Polytechnic Institute and State University in a room maintained at 75° F., with a 12:12 h light-dark cycle starting from 6:00 AM. All experimental procedures were approved by the Institutional Animal Care and Use Committee of Virginia Polytechnic Institute and State University and met or exceeded requirements of the Public Health Service, National Institutes of Health and the Animal Welfare Act. […] Louis, Mo.) for 60 days. Mice were weighed and fasting (12 h) blood glucose levels were taken weekly. Blood glucose levels were assessed with an ACCU-CHEK® Glucometer (Roche, Indianapolis, Ind.). […] On day 60 mice were sacrificed by CO2 narcosis with secondary thoracotomy. Abdominal WAT, inguinal subcutaneous WAT, and liver were then excised and weighed. Abdominal and subcutaneous WAT were then digested and fractionated.

PPAR γ = biological target: T1, PPAR γ (Mus musculus, UniProt P37238); assay: PPAR γ reporter activity assay in 3T3-L1 preadipocytes; type: cell-based; details: 6 hrs, 2′5′-dideoxyadenosine 10 μM, PKAi 30 μM; for ABA-induced PPAR γ activation, effect of inhibitor: ABA 10 μM; for Ros-induced PPAR γ activation, effect of inhibitor: Ros 1 μM
T1 construct: expressed in transfected cells; host or cells: 3T3-L1 pre-adipocytes
T1 sequence (P37238 31-505 limits assumed): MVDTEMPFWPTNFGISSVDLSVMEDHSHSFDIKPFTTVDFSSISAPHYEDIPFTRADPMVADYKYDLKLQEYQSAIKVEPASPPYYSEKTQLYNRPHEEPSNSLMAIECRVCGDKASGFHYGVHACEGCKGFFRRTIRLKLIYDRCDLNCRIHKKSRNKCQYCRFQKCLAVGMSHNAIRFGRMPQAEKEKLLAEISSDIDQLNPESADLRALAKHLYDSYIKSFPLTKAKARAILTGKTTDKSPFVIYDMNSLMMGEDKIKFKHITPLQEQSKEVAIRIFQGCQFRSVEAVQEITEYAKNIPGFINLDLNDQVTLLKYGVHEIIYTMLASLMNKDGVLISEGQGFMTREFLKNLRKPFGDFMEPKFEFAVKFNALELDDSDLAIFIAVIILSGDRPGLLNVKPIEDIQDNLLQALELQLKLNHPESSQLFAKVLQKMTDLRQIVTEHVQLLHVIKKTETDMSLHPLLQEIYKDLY
Method: For 3T3-L1 preadipocytes cells were treated for 6-h with vehicle (DMSO) or Ros (1 μM) with ABA (10 μM), the cAMP-inhibitor 2′5′ dideoxyadenosine (dideoxy, 10 μM), or 14-22 myristolated PKA inhibitor fragment (PKAi, 30 μM). […] Luciferase activity was normalized to pRL activity in the cell extracts and relative luciferase activity was calculated a ratio of the activity in the treatment wells to control wells. Data are represented as mean±standard error.
A pCMX.PPAR γ expression plasmid and a pTKPPRE3x luciferase reporter plasmid driven by the PPRE-containing Acyl-CoA oxidase promoter (kindly provided by Dr. R M. Evans, The Salk Institute, San Diego, Calif.) were purified using Qiagen's Maxi kit (Valencia, Calif.). […] Cells were co-transfected in the […] with 1.5 μg plasmid DNA and 25 ng of pRL reporter control using F-2 transfection reagents (Targeting Systems, Santee, Calif.) according to the manufacturer's protocol. […] Cells were then treated in replicates of 8 with vehicle (DMSO), rosiglitazone (1 or 10 μM; Cayman Chemicals, Arm Arbor, Mich.), or ABA (10 μM; Sigma) with and without 2′5′ dideoxyadenosine (10 μM; Sigma) and 14-22 myristolated PKA inhibitor fragment (PKAi, 30 μM; Sigma). […] Luciferase activity, normalized to pRL activity in the cell extracts was determined by using the Dual Luciferase II reporter assay system (Promega, Madison, Wis.) using a Modulus 96-well luminometer (Turner Biosystems, Sunnyvale, Calif.). All values were normalized to control wells to calculate relative luciferase activity.

[3] = db/db mice, Roshi diet (70 mg/kg diet), day 60
[4] = db/db mice, Roslo diet (10 mg/kg diet), day 60

O=C1NC(=O)C(Cc2ccc3c(c2)CC[C@H](Cc2ccccc2)O3)S1 (stereo partly shown) [Englitazone]
current minimum effective drug dose [1]: 200 μmol/kg diet

CN(CCOc1ccc(CC2SC(=O)NC2=O)cc1)c1ccccn1 (stereo not shown) [rosiglitazone]
edema in the interscapular region ([2]; db/db mice fed Ros^hi (70 mg/kg diet)): significant edema | Final body weight ([2]; db/db mice, Roshi diet (70 mg/kg diet)): 64.4 ± 2.4^d g | Ab. WAT % Body Weight [2, 3]: 4.6 ± 0.61^a % Body Weight | Liver % Body Weight [2, 3]: 6.7 ± 2.3^a % Body Weight | Sc. WAT % Body Weight [2, 3]: 3.2 ± 0.43 % Body Weight | Final body weight ([2]; db/db mice, Roslo diet (10 mg/kg diet)): 56.4 ± 2.4^bc g | Ab. WAT % Body Weight [2, 4]: 6.7 ± 0.61^bc % Body Weight | Liver % Body Weight [2, 4]: 9.2 ± 0.51^b % Body Weight | Sc. WAT % Body Weight [2, 4]: 2.4 ± 0.43 % Body Weight | liver weights (in words) ([2]; db/db mice, day 60, low dose Ros, ABA 100 mg/kg diet): significantly increased | body weights of the mice (in words) ([2]; db/db mice, both low- and high-dose rosiglitazone, 60-day dietary intervention): significantly increased

PKAi: 14-22 myristoylated PKA inhibitor fragment (Myristoyl-SGRTGRRNA; UniProt P61925 14-22, looked up, fragment)
ABA-induced PPAR γ activation, effect of inhibitor (PPAR γ): prevented | Ros-induced PPAR γ activation, effect of inhibitor (PPAR γ): no effect

C[C@H]1O[C@@H](n2cnc3c(N)ncnc32)C[C@@H]1O [2′5′-dideoxyadenosine]
ABA-induced PPAR γ activation, effect of inhibitor (PPAR γ): prevented | Ros-induced PPAR γ activation, effect of inhibitor (PPAR γ): no effect
